Legend:
[1] = tested on: Mac-1 and LFA-1-mediated neutrophil binding to immobilized ICAM-1; assay: Neutrophil (Mac-1 and LFA-1)/ICAM-1 cell-based screening assay; settings: human neutrophils
Procedure: Both Mac-1 and LFA-1 are expressed on the cell surface of neutrophils. The ability of antagonists to inhibit Mac-1 and LFA-1-mediated neutrophil binding to immobilized ICAM-1 was quantitated by a cell based assay. Typically, fusion protein consisting of the entire extracellular domain of human ICAM-1 and the Fc domain of human IgG (5dICAM-Ig) was coated onto 96 well microtiter plates (1 μg in 100 μL TBS) overnight at 4° C. The plates were then blocked with 150 μL of 10% PVP in TBS for 1 h at 37° C. Plates were washed 3 times (150 μL each) with TBS. Human neutrophils were purified from whole blood from healthy volunteers using LSM (ICN). Cells (8×10^6/mL) were fluorescently labeled with 6-carboxyfluorescein (100 μg/mL) for 40 min in IMDM/1 mM MgCl2/1.2 mM CaCl2 as described in Example 287. Cells (8×10^6/mL) were stimulated with f-Met-Leu-Phe (10 μM) for 5 min at room temperature just prior to being used in the assay, and diluted to 2×10^6 cells/mL with RPMI/0.05% BSA/0.2 mM MnCl2. Stock solutions (10 mM) of test compounds were diluted to 2.5 mM with DMSO. A series of 1:4 dilutions in DMSO were performed to achieve a concentration range of 38.2 nM-2.5 mM. Each sample was further diluted 50-fold with RPMI/0.05% BSA/0.2 mM MnCl2. Equal volumes of labeled cells were then added to assay tubes containing diluted compound. Final concentrations of compound tested in the assay ranged from 0.38 nM-25 μM with a cell concentration of 1×10^6 per mL. Cells were incubated for 10 min at 37° C. with gentle shaking, then dispensed (100 μL per well) onto ICAM-1 coated plates and incubated for 30 min at 37° C./5% CO2. Unbound cells were washed and plates were read on a Cytofluor™ 2300 (Millipore) as described in Example 384.

[2] = tested on: C57BI/6 mice; assay: Delayed type hypersensitivity in mice (mBSA paw swelling); type: in vivo; settings: compared to distilled water pumps
Procedure: Sensitization: On day 0, adult female C57BI/6 mice (20-25 g) received 50 μl each of a 1:1 mixture of 10 mg/ml methylated bovine serum albumin (mBSA) in phosphate buffered saline (PBS) and complete Freund's adjuvant (CFA) intradermally at two sites on shaved bellies (total volume 100 μl per mouse). Control mice received an equal volume of a PBS/CFA mixture (unsensitized).
Challenge: On day 7, the mice received 20 μl I of 5 mg/ml mBSA in PBS injected into the right hind paw. The contralateral left paw of each mouse was injected with an identical volume of PBS. After 24 hours, the paw swelling of both the hind feet of all mice was measured with microcalipers. To determine the paw swelling response, measurements of the left paw were subtracted from that of the right paw for each individual mouse.
At the time of challenge, anaesthetized mice were implanted on their backs with Alzet osmotic minipumps which delivered a constant volume per hour of the inhibitors (e.g. Example 226) subcutaneously. The pumps delivered a volume 200 μl over a period of 1 day. Different doses of the compounds were tested viz. 850, 250 and 85 mg/kg/day. The inhibitors were formulated in distilled water. Control mice received pumps containing distilled water. For antibody treatment groups, mice received 200 μg of anti-mouse LFA-1 (Mi7), anti-mouse Mac-1 (M1/70) or control rat IgG intraperitoneally on the day of challenge.
In table 10, the swelling response in antibody-treated animals is compared to the swelling response in rat IgG-treated animals. The swelling response in compound-treated animals is compared to the swelling-response in mice that had received pumps containing distilled water

[3] = tested on: BALB/c mice; assay: Croton oil-induced dermatitis in mice (ear swelling); type: in vivo; settings: compared to distilled water pumps
Procedure: Adult female BALB/c mice (20-25 g) received 10 μl of 20 mg/ml of croton oil in 80% acetone:20% olive oil vehicle on each side of the right ear (total of 20 μl per mouse). All the mice received a similar volume of the acetone/olive oil vehicle on the contralateral left ear. Negative control mice received vehicle on both ears. Six hours thereafter, the ear swelling on both ears was measured with microcalipers. The ear swelling response was determined by subtraction of the swelling measurements of the left ear from that of the right ear for each individual mouse.
Inhibitors were administered to mice via 3 day Alzet osmotic minipumps. Pumps containing different concentrations of the inhibitors were implanted on the backs of anaesthetized mice 2 days prior to croton oil application. Additional mice received an equal volume of distilled water in pumps. For mice receiving antibodies, anti-CD18 antibody (HB226) or control rat IgG were administered i.p. at 200 μg per mouse 18 hours prior to croton oil application.
In table 11, the swelling response in antibody-treated animals is compared to the swelling response in rat IgG-treated animals. The swelling response in compound-treated animals is compared to the swelling-response in mice that had received pumps containing distilled water

Row | Structure (SMILES) | IC50 [1] | further results
1 | O=C(CC1CCCCC1)NC[C@H](NC(=O)c1ccc(C(=O)NCc2cccc(O)c2)cc1Cl)C(=O)O [Example 78] | 0.253 µM | 
2 | O=C(NCc1cccc(O)c1)c1ccc(C(=O)N[C@@H](CNC(=O)c2ccc3c(c2)S(=O)(=O)c2ccccc2C3=O)C(=O)O)c(Cl)c1 [Example 192] | 0.634 µM | 
3 | O=C(NC[C@H](NC(=O)c1c(F)cccc1Cl)C(=O)O)c1ccc2[nH]nnc2c1 [Example 226] |  | Percentage inhibition of paw swelling in response to challenge with methylated bovine serum albumin ([2]; 1 μM, s.c. osmotic minipump): −2%; Percentage inhibition of paw swelling in response to challenge with methylated bovine serum albumin ([2]; 3 μM circulating serum level (250 mg/kg/day, s.c. osmotic minipump)): 52%; Percentage inhibition of paw swelling in response to challenge with methylated bovine serum albumin ([2]; 9 μM circulating serum level (850 mg/kg/day, s.c. osmotic minipump)): 77%; Percentage inhibition of ear swelling in response to croton oil application ([3]; 1 μM, osmotic minipump): 8%; Percentage inhibition of ear swelling in response to croton oil application ([3]; 2 μM circulating serum level (64 mg/kg/day, osmotic minipump)): 48%; Percentage inhibition of ear swelling in response to croton oil application ([3]; 4 μM circulating serum level (250 mg/kg/day, osmotic minipump)): 62%
4 | O=C(NCc1cccc(O)c1)c1ccc(C(=O)N[C@@H](CNC(=O)c2cc(F)cc(F)c2)C(=O)O)c(Cl)c1 [Example 252, N-[2-chloro-4-[[[(3-hydroxyphenyl)methyl]amino]carbonyl]benzoyl]-3-(3,5-difluorobenzoyl)amino-L-alanine] | 0.034 µM | 
5 | O=C(NCc1cccc(O)c1)c1ccc(C(=O)N[C@@H](CNC(=O)c2ccoc2)C(=O)O)c(Cl)c1 [Example 259, N-[2-chloro-4-[[[(3-hydroxyphenyl)methyl]amino]carbonyl]benzoyl]-3-(furan-3-carbonyl)amino-L-alanine] | 0.021 µM | 
6 | O=C(NCc1cccc(O)c1)c1ccc(C(=O)N[C@@H](CNC(=O)c2ccccc2)C(=O)O)c(Cl)c1 [Example 302, 3-benzoylamino-N-[2-chloro-4-[[[(3-hydroxyphenyl)methyl]amino]carbonyl]benzoyl]-L-alanine] | 0.041 µM | 
7 | O=C(NCc1cccc(O)c1)c1ccc(C(=O)N[C@@H](CNC(=O)c2cccs2)C(=O)O)c(Cl)c1 [Example 303, N-[2-chloro-4-[[[(3-hydroxyphenyl)methyl]amino]carbonyl]benzoyl]-3-(thiophene-2-carbonyl)amino-L-alanine] | 0.016 µM | 
8 | Cc1cc(C(=O)NCc2cccc(O)c2)ccc1C(=O)N[C@@H](CNC(=O)c1cccs1)C(=O)O [Example 323] | 0.061 µM | 
9 | O=C(NCc1cccc2[nH]ncc12)c1ccc(C(=O)N[C@@H](CNC(=O)c2cccs2)C(=O)O)c(Cl)c1 [Example 327, N-[2-chloro-4-[[[(1H-indazol-4-yl)methyl]amino]carbonyl]benzoyl]-3-(thiophene-2-carbonyl)amino-L-alanine] | 0.02 µM | 
10 | Cc1cc(C(=O)NCc2cccc(O)c2)cc(C)c1C(=O)N[C@@H](CNC(=O)c1cccs1)C(=O)O [Example 330] | 0.0067 µM | 
11 | Cc1cc(C(=O)N[C@H](C)c2cccc3ccccc23)cc(C)c1C(=O)N[C@@H](CNC(=O)c1cccs1)C(=O)O [Example 333] | 0.014 µM | 
12 | Cc1cc(C(=O)NCc2cccc(O)c2)cc(C)c1C(=O)N[C@@H](CNC(=O)c1ccsc1)C(=O)O [Example 336, N-[2,6-dimethyl-4-[[[(3-hydroxyphenyl)methyl]amino]carbonyl]benzoyl]-3-(thiophene-3-carbonyl)amino-L-alanine] | 0.0061 µM | 
13 | Cc1cc(C(=O)NCc2cccc(O)c2)cc(C)c1C(=O)N[C@@H](CNC(=O)c1cc(F)cc(F)c1)C(=O)O [Example 337, N-[2,6-dimethyl-4-[[[(3-hydroxyphenyl)methyl]amino]carbonyl]benzoyl]-3-(3,5-difluorobenzoylamino)-L-alanine] | 0.012 µM | 
14 | Cc1cc(C(=O)NCc2cccc(O)c2)cc(Cl)c1C(=O)N[C@@H](CNC(=O)c1cccs1)C(=O)O [Example 338, N-[2-chloro-4-[[[(3-hydroxyphenyl)methyl]amino]carbonyl]-6-methylbenzoyl]-3-[(thiophene-2-carbonyl)amino]-L-alanine] | 0.0039 µM | 
15 | Cc1cc(C(=O)NCc2cccc(O)c2)cc(Cl)c1C(=O)N[C@@H](CNC(=O)c1ccsc1)C(=O)O [Example 339, N-[2-chloro-4-[[[(3-hydroxyphenyl)methyl]amino]carbonyl]-6-methylbenzoyl]-3-[(thiophene-3-carbonyl)amino]-L-alanine] | 0.003 µM | 
16 | Cc1cc(C(=O)NCc2cccc(O)c2)cc(Cl)c1C(=O)N[C@@H](CNC(=O)c1cc(F)cc(F)c1)C(=O)O [Example 340, N-[2-chloro-4-[[[(3-hydroxyphenyl)methyl]amino]carbonyl]-6-methylbenzoyl]-3-[(3,5-difluorobenzoyl)amino]-L-alanine] | 0.004 µM | 
17 | O=C(NCc1cccc(O)c1)c1cc(Cl)c(C(=O)N[C@@H](CNC(=O)c2cccs2)C(=O)O)c(Cl)c1 [Example 342, N-[2,6-dichloro-4-[[[(3-hydroxyphenyl)methyl]amino]carbonyl]benzoyl]-3-[(thiophene-2-carbonyl)amino]-L-alanine] | 0.0023 µM | 
18 | O=C(NCc1cccc(O)c1)c1cc(Cl)c(C(=O)N[C@@H](CNC(=O)c2ccsc2)C(=O)O)c(Cl)c1 [Example 343, N-[2,6-dichloro-4-[[[(3-hydroxyphenyl)methyl]amino]carbonyl]benzoyl]-3-[(thiophene-3-carbonyl)amino]-L-alanine] | 0.0019 µM | 
19 | O=C(NCc1cccc(O)c1)c1cc(Cl)c(C(=O)N[C@@H](CNC(=O)c2cc(F)cc(F)c2)C(=O)O)c(Cl)c1 [Example 344, N-[2,6-dichloro-4-[[[(3-hydroxyphenyl)methyl]amino]carbonyl]benzoyl]-3-[(3,5-difluorobenzoyl)amino]-L-alanine] | 0.0017 µM | 
20 | O=C(NCc1cccc(O)c1)c1cc(Cl)c(C(=O)N[C@@H](CNC(=O)c2cc(O)cc(O)c2)C(=O)O)c(Cl)c1 [Example 345, N-[2,6-dichloro-4-[[[(3-hydroxyphenyl)methyl]amino]carbonyl]benzoyl]-3-(3,5-dihydroxybenzoylamino)-L-alanine] | 0.0001 µM | 

— patent US20040006236A1, “Diaminopropionic acid derivatives” (priority 1999, published 2004)
